# Laboratory results reported in patent US20160222014A1, “COMPOUNDS FOR REGULATING FAK AND/OR SRC PATHWAYS” (ASANA BIOSCIENCES, LLC, priority 2013, published 2016).
# Molecular target: T1, recombinant human FAK1 (Homo sapiens, UniProt Q05397)
# T1 construct: fused on or other part: N-terminal 6xHis tag
# Assay: FAK1 HTRF assay
# Format: biochemical
# Experimental: Active FAK1 was prepared for use in the Homogeneous Time-Resolved Fluorescence (HTRF) assay. Briefly, N-terminal 6 His tagged recombinant human FAK1, from residue 692-end (GenBank accession no. L13616) was expressed by Bacculovirus in sf9 cells. […] A 1.6 mg/mL (45 μM) stock was used in the HTRF assay at a final concentration of 10 nM.
# Gastrin precursor (tyr87) biotinylated peptide which contains the residues surrounding tyrosine 87 (EEAY*GWM) of gastrin precursor was obtained (Cell Signaling Tech, Item no. 1310, Lot 7). The peptide was provided at a stock concentration of 6 μM, and used a final concentration of 0.5 μM in the HTRF assay.
# 10 mM stock in 100 μL Enzyme assay buffer pH7.4 was prepared freshly and used at a final concentration of 10 μM in the assay.
# Powders were dissolved in 100% DMSO to a final stock concentration of 10 mM. The volume needed (in μL) to add for 10 mM=mg powder is 10^5/MW of compound. The final compound concentration in the assay plate started at 10 μM.
# Pfizer FAK inhibitor PF-562271 (N-methyl-N-(3-(((2-((2-oxoindolin-5-yl)amino)-5-(trifluoromethyl)pyrimidin-4-yl)amino)methyl)pyridin-2-yl)methanesulfonamide) was prepared as per the reported procedure from US Patent Publication No. 2005/256145A1.
# Streptavidin-Allophycocyanin was obtained (Prozyme, Cat. No. PJ25S. SA-APC was provided at a stock concentration of 2.06 mg/mL, where APC concentration was 11.6 μM and the streptavidin concentration was 15.5 μM. SA-APC was used at a final concentration of 12 nM in the assay (based on streptavidin concentration).
# This reagent was obtained from Perkin ElmerAD0068. Europium-W1024-PT-66 Anti Phospho Tyrosine Ab is a monoclonal IgG1 that recognizes phospho tyrosine peptide. 100 μg/mL stock was used at a final concentration of 0.1 nM in the assay.
# • 1. The compound dilutions were made by TECAN liquid handler as per the scheme in FIG. 1. • 2. 16 μL of diluted compound was added to each well of the assay plate using TECAN liquid handler. • 3. 20 μL of substrate mix (biotinylated gastrin precursor) was added into each well of the assay plate manually. • 4. 10 μL of enzyme mix (FAK1) was added to each well except mins. • 5. The plate was incubated at rt for 45 min with shaking. • 6. The HTRF mix was prepared and 75 μL was added to the HTRF plate. • 7. After the incubation was over, 10 μL of the mixture was transferred to the HTRF assay plate and incubated for 45 min at rt with shaking. • 8. The readings were taken in Pherastar in HTRF mode (ext 337 nm, em 665 & 620 nm) • 9. The results were analyzed using Graphpad Prism® software after calculation the z factor signal window and % inhibition. • 10. The IC50 was calculated.
# T1 sequence (Q05397 422-680 limits assumed): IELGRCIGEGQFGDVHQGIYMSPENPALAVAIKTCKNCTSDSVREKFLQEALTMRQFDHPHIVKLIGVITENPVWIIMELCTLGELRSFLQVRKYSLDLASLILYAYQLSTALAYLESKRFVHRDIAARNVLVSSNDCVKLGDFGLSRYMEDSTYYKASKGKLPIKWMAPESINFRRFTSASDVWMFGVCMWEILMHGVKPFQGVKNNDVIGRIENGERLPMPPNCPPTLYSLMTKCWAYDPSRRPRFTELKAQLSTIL
row,SMILES,IC50 [nM]
1,CN1CCC(Oc2ccc(Nc3ncc4ccn(Cc5ccccc5N(C)S(C)(=O)=O)c4n3)cc2)CC1 [Example 531],< 20
2,CN(c1ccccc1Cn1ccc2cnc(Nc3ccc(N4CCC(CO)CC4)cc3)nc21)S(C)(=O)=O [Example 566],< 20
3,CN(C)C1CCN(c2ccc(Nc3ncc4ccn(Cc5ccccc5N(C)S(C)(=O)=O)c4n3)cc2)C1 (stereo not shown) [Example 571],< 20
4,CN(c1ccccc1Cn1ccc2cnc(Nc3ccc(OCCN4CCNCC4)cc3)nc21)S(C)(=O)=O [Example 572],< 20
5,CN(C)C1CN(c2ccc(Nc3ncc4ccn(Cc5ccccc5N(C)S(C)(=O)=O)c4n3)cc2)C1 [Example 588],< 20
6,CN(C)C1CCN(c2ccc(Nc3ncc4ccn(Cc5ccccc5N(C)S(C)(=O)=O)c4n3)cc2F)C1 (stereo not shown) [Example 590],< 20
7,CN(c1ccccc1Cn1ccc2cnc(Nc3ccc(N4CCC(C)(O)CC4)cc3)nc21)S(C)(=O)=O [Example 638],< 20
8,COc1ccc(N(C)S(C)(=O)=O)c(Cn2ccc3cnc(Nc4ccc(N5CCNCC5)cc4)nc32)c1 [Example 661],< 20
9,C[C@H]1CN(C(=O)c2ccc(Nc3ncc4ccn(Cc5cccnc5N(C)S(C)(=O)=O)c4n3)cc2)CCN1 [Example 682],> 1000
10,COc1ccc(N(C)S(C)(=O)=O)c(Cn2ccc3cnc(Nc4ccc(N5CCNCC5)c(F)c4)nc32)c1 [Example 700],< 20
11,CN1CCC(NC(=O)c2ccc(Nc3ncc4c(n3)N(S(=O)(=O)c3cccc5cccnc35)CC4(C)C)cc2)CC1 [Example 702],< 20
12,COc1ccc(N(C)S(C)(=O)=O)c(Cn2ccc3cnc(Nc4ccc(N5CCC(N(C)C)CC5)c(OC)c4)nc32)c1 [Example 703],< 20
13,CCC1CN(c2ccc(Nc3ncc4ccn(Cc5cc(OC)ccc5N(C)S(C)(=O)=O)c4n3)cc2)CCN1 (stereo not shown) [Example 704],< 20
14,COc1ccc(N(C)S(C)(=O)=O)c(Cn2ccc3cnc(Nc4ccc(N5CCC(N(C)C)CC5)c(C)c4)nc32)c1 [Example 705],< 20
15,CNC1CCN(c2ccc(Nc3ncc4ccn(Cc5cc(OC)ccc5N(C)S(C)(=O)=O)c4n3)cc2)CC1 [Example 709],< 20
16,C[C@@H]1CN(c2ccc(Nc3ncc4ccn(Cc5ccccc5N(C)S(C)(=O)=O)c4n3)cc2C2CC2)CCN1 [Example 710],< 20
17,CN(c1ccc(C#N)cc1Cn1ccc2cnc(Nc3ccc(N4CCNCC4)cc3)nc21)S(C)(=O)=O [Example 715],< 20
18,CN(c1ccc(OC(F)F)cc1Cn1ccc2cnc(Nc3ccc(N4CCNCC4)cc3)nc21)S(C)(=O)=O [Example 717],< 20
19,"Cc1ccc(N(C)S(C)(=O)=O)c(Cn2ccc3cnc(Nc4ccc(N5CCNCC5)cc4)nc32)c1 [Example 759, N-methyl-N-(4-methyl-2-((2-((4-(piperazin-1-yl)phenyl)amino)-7H-pyrrolo[2,3-d]pyrimidin-7-yl)methyl)phenyl)methanesulfonamide]",< 20
20,Cc1ccc(N(C)S(C)(=O)=O)c(Cn2ccc3cnc(Nc4ccc(N5CCC(N(C)C)CC5)cc4)nc32)c1 [Example 761],< 20
21,Cc1ccc(N(C)S(C)(=O)=O)c(Cn2ccc3cnc(Nc4ccc(N5CCN[C@@H](C)C5)cc4)nc32)c1 [Example 766],< 20
22,Cc1cn(S(=O)(=O)c2cccc3cccnc23)c2nc(Nc3ccc(N4CCNCC4)cc3)ncc12 [Example 769],< 20
23,CN(C)C1CCN(c2ccc(Nc3ncc4ccn(Cc5cc(F)ccc5N(C)S(C)(=O)=O)c4n3)cc2)CC1 [Example 778],< 20
24,Cc1cc(Nc2ncc3ccn(Cc4cc(F)ccc4N(C)S(C)(=O)=O)c3n2)ccc1C1CCNCC1 [Example 782],< 20
25,Cc1ccc(N(C)S(C)(=O)=O)c(Cn2ccc3cnc(Nc4ccc(C5CCNCC5)cc4)nc32)c1 [Example 789],< 20

row,SMILES,IC50 [nM]
1,CN(c1ccc(F)cc1Cn1ccc2cnc(Nc3ccc4c(c3)CC(=O)N4)nc21)S(C)(=O)=O [Example 792],< 20
2,C[C@@H]1CN(c2ccc(Nc3ncc4ccn(Cc5cc(F)ccc5N(C)S(C)(=O)=O)c4n3)cc2)CCN1 [Example 793],< 20
3,Cc1cc(Nc2ncc3ccn(Cc4cc(F)ccc4N(C)S(C)(=O)=O)c3n2)ccc1N1CCC(N(C)C)CC1 [Example 794],< 20
4,CN(C)C1CCN(c2ccc(Nc3ncc4ccn(Cc5cc(Cl)ccc5N(C)S(C)(=O)=O)c4n3)cc2)CC1 [Example 796],< 20
5,CN(c1ccc(F)cc1Cn1ccc2cnc(Nc3ccc(N4CCC(N)CC4)cc3)nc21)S(C)(=O)=O [Example 799],< 20
6,CN(c1ccc(F)cc1Cn1ccc2cnc(Nc3ccc(N4CCCC(N)C4)cc3)nc21)S(C)(=O)=O (stereo not shown) [Example 800],< 20
7,COc1cc(Nc2ncc3ccn(Cc4cc(F)ccc4N(C)S(C)(=O)=O)c3n2)ccc1N1CCNCC1 [Example 801],< 20
8,CN(c1ccc(F)cc1Cn1ccc2cnc(Nc3ccc(N4CCNCC4)c(F)c3)nc21)S(C)(=O)=O [Example 802],< 20
9,CN(c1ccc(F)cc1Cn1ccc2cnc(Nc3ccc(N4CCNCC4)cc3)nc21)S(C)(=O)=O [Example 805],< 20
10,CN(C)C1CCC(c2ccc(Nc3ncc4ccn(Cc5cc(F)ccc5N(C)S(C)(=O)=O)c4n3)cc2)CC1 (stereo not shown) [Example 806],< 20
11,Cc1ccc(N(C)S(C)(=O)=O)c(Cn2ccc3cnc(Nc4ccc(C5CCNCC5)c(C)c4)nc32)c1 [Example 807],< 20
12,Cc1ccc(N(C)S(C)(=O)=O)c(Cn2ccc3cnc(Nc4ccc(N5CCN[C@@H](C)C5)c(F)c4)nc32)c1 [Example 809],< 20
13,C[C@H]1CN(c2ccc(Nc3ncc4ccn(Cc5cc(C(F)(F)F)ccc5N(C)S(C)(=O)=O)c4n3)cc2)CCN1 [Example 810],< 20
14,CN(c1ccc(C(F)(F)F)cc1Cn1ccc2cnc(Nc3ccc(N4CCNCC4)cc3)nc21)S(C)(=O)=O [Example 892],< 20
15,C[C@H]1CN(c2ccc(Nc3ncc4ccn(Cc5cc(Cl)ccc5N(C)S(C)(=O)=O)c4n3)cc2)CCN1 [Example 899],< 20
16,CN(c1ccc(F)cc1Cn1ccc2cnc(Nc3ccc(N4CCN(CCO)CC4)cc3)nc21)S(C)(=O)=O [Example 920],< 20
17,Cc1ccc(N(C)S(C)(=O)=O)c(Cn2ccc3cnc(Nc4ccc(N5CCNCC5)c(F)c4)nc32)c1 [Example 941],< 20
18,COc1cc(Nc2ncc3ccn(Cc4cc(C)ccc4N(C)S(C)(=O)=O)c3n2)ccc1N1CCNCC1 [Example 942],< 20
19,Cc1ccc(N(C)S(C)(=O)=O)c(Cn2ccc3cnc(Nc4ccc(N5CCC(N)CC5)cc4)nc32)c1 [Example 977],< 20
20,Cc1ccc(N(C)S(C)(=O)=O)c(Cn2ccc3cnc(Nc4ccc(N5CCCC(N)C5)cc4)nc32)c1 (stereo not shown) [Example 978],< 20
21,Cc1ccc(N(C)S(C)(=O)=O)c(Cn2ccc3cnc(Nc4ccc(C5CCC(N(C)C)CC5)cc4)nc32)c1 (stereo not shown) [Example 980],< 20
22,Cc1cnc(N(C)S(C)(=O)=O)c(Cn2ccc3cnc(Nc4ccc(N5CCC(N(C)C)CC5)c(C)c4)nc32)c1 [Example 981],< 20
23,CNC(=O)c1ccc(Nc2ncc3ccn(Cc4cc(F)ccc4N(C)S(C)(=O)=O)c3n2)cc1 [Example 983],< 20
24,CNC(=O)c1ccc(Nc2ncc3ccn(Cc4cc(C)ccc4N(C)S(C)(=O)=O)c3n2)cc1 [Example 986],< 20
